Measurements as given in patent US12637471B2, “Heterocyclic compounds, compositions, methods of preparation and uses thereof” (Organon R&D Finland Ltd, priority 2021, dated 2026).

How the values were obtained:
Type in all cases: biochemical
[1] = molecular target: T1, Recombinant human aldo-keto reductase family 1 member C2 (AKR1C2) protein (Homo sapiens, UniProt P52895); assay: Inhibition of the aldo-keto reductase family 1 member C2, 3H-dihydrotestosterone conversion; settings: inhibitor at 10 μM
T1 construct: made in house; host or cells: Sf-9 insect cells (baculovirus)
T1 sequence (P52895 1-323): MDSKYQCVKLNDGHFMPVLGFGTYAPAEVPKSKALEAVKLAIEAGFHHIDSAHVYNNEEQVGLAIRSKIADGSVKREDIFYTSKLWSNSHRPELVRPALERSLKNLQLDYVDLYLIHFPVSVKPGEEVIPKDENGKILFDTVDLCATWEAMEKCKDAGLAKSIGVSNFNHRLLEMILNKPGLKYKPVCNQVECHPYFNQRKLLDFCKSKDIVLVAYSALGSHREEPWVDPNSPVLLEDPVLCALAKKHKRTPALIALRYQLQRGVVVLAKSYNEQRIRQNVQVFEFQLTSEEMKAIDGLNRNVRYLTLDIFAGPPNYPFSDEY
Description: Inhibition of the Aldo-Keto Reductase Family 1 Member C2
Recombinant human aldo-keto reductase family 1 member C2 (AKR1C2) protein (GenBank Accession No. NM_001354.6) produced in Sf-9 insect cells with baculovirus was used for screening. Recombinant protein (13.6 nM/0.5 μg/ml) was incubated in 20 mM KH2PO4 pH 7.4, 1 mM EDTA, complete protease inhibitor tablet, 1 mM NADPH with 6.25 nM ^3H-labelled dihydrotestosterone for 45 min at +37° C., in the presence of the potential inhibitor at 10 μM concentration. Inhibitor stock solutions were prepared in DMSO. Final concentration of DMSO was adjusted to 1% in all samples. The enzyme reaction was stopped by addition of 10% trichloroacetic acid (final concentration 1%). Samples were filtrated through […] filtration plate (Merck). Analyses of samples was done with Waters Acquity UPLC H-class equipped with XBridge C18 column and XBridge VanGuard C18 guard column. Acetonitrile: 0.1% formic acid in water (42/58 v/v) with flow of 1.2 ml/min was used for mobile phase. The eluent was mixed with scintillant and the radioactivity was monitored in the eluate by a Scintillation Analyser. The conversion percentage of triated substrate (dihydrotestosterone) to tritiated product (5α-androstane-3α,17β-diol) for each sample was determined by the relative percentages of substrate and product in the chromatogram. The inhibition percentages of samples were calculated using following formula: […]

[2] = molecular target: T2, 17β-Hydroxysteroid Dehydrogenase Type 2 Enzyme (17β-HSD2) (Homo sapiens, UniProt P37059); assay: Inhibition of the 17β-hydroxysteroid dehydrogenase type 2 enzyme, 3H-testosterone conversion; settings: inhibitor at 10 μM
T2 construct: made in house; host or cells: Sf-9 insect cells (baculovirus)
T2 sequence (P37059 1-387): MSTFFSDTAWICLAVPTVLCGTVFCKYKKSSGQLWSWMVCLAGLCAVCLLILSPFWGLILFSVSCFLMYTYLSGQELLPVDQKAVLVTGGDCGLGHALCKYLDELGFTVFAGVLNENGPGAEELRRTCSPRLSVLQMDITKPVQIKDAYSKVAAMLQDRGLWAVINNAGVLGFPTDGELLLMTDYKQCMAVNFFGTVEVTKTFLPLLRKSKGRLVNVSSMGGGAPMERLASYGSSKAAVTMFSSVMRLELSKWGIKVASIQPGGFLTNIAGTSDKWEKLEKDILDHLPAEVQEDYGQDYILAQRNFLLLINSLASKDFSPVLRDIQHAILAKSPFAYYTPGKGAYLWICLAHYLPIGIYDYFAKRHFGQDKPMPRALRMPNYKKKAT
Description: Inhibition of the 17β-Hydroxysteroid Dehydrogenase Type 2 Enzyme
Recombinant human 173-HSD2 protein (GenBank Accession No. NM_002153.3) produced in Sf-9 insect cells with baculovirus was used for screening.
Recombinant protein (105 nM/4.5 μg/ml) was incubated in 20 mM KH2PO4 pH 8.5, 1 mM EDTA, complete protease inhibitor cocktail, 1 mM NAD with 56.25 nM testosterone (including ^3H-labelled testosterone) for 30 min at RT, in the presence of the potential inhibitor at 10 μM concentration. Inhibitor stock solutions were prepared in DMSO. Final concentration of DMSO was adjusted to 1% in all samples. The enzyme reaction was stopped by addition of 10% trichloroacetic acid (final concentration 1%). Samples were filtrated through […] filtration plate. Analyses of samples was done with Waters Acquity UPLC H-class equipped with XBridge C18 column and XBridge VanGuard C18 guard column. Acetonitrile: 0.1% formic acid in water (42/58 v/v) with flow of 1.2 ml/min was used for mobile phase. The eluent was mixed with scintillant and the radioactivity was monitored in the eluate by a Scintillation Analyser. The conversion percentage of tritiated substrate (testosterone) to product tritiated (androstenedione) for each sample was determined by the relative percentages of substrate and product in the chromatogram. The inhibition percentages of samples were calculated using following formula: […]

[3] = molecular target: T3, Recombinant human AKR1C3 (17β-HSD5) protein (Homo sapiens, UniProt P42330); assay: Inhibition of AKR1C3 (17β-hydroxysteroid dehydrogenase type 5) enzyme, fluorescence assay; settings: inhibitor at 500 nM
T3 construct: made in house; host or cells: E. coli
T3 sequence (P42330 1-323): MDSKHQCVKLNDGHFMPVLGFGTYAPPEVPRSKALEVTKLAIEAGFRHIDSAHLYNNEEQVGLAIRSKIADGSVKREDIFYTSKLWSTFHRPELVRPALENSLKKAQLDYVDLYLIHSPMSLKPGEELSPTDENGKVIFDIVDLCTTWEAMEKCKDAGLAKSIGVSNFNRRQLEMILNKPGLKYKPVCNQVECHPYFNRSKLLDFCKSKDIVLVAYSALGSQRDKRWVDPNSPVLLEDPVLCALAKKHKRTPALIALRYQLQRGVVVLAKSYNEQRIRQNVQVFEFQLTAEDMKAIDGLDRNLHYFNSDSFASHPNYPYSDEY
Description: Inhibition of AKR1C3 (17β-Hydroxysteroid Dehydrogenase Type 5) Enzyme
Recombinant human AKR1C3 (17β-HSD5) protein (GenBank Accession No. NM_003739.6) produced in E. coli was used for screening. Recombinant protein (27 nM/1 μg/ml) was incubated in 20 mM KH2PO4, 1 mM EDTA, complete protease inhibitor cocktail, pH 7.4 with 1 μM 9-acetyl-2,3,6,7-tetrahydro-1H,5H,11H-pyrano[2,3-f]pyrido[3,2,1-ij]quinolin-11-one and 1 mM NADPH for 60 to 120 min at RT, in the presence of the potential inhibitor at 500 nM concentration. Inhibitor stock solutions were prepared in DMSO. Final concentration of DMSO was adjusted to 1% in all samples. The samples were analysed by fluorescent measurement with Tecan Spark microplate reader at wavelengths 420 nm for excitation and 510 nm for emission. Samples were evaluated against standards of 9-(1-hydroxyethyl)-2,3,6,7-tetrahydro-1H,5H,11H-pyrano[2,3-f]pyrido[3,2,1-ij]quinolin-11-one at concentrations 1 μM-10 nM. Background fluorescence was reduced from all the samples and standards. The concentrations of formed product were calculated from the standard curve with Tecan Spark Magellan software. The formed product concentrations were used to calculate conversion percentages. The inhibition percentages for the samples were calculated from the conversion percentages.
Inhibition percentages of samples were calculated using following formula: […]

| inhibition at 10 µM [1] | inhibition at 10 µM [2] | inhibition at 0.5 µM [3] | SMILES |
| --- | --- | --- | --- |
| 6% | 26% | 99% | Cn1ncc2cccc(C(C#N)=C3CCN(C(=O)N4CCc5nocc5C4)CC3)c21 [Compound 136, 2-(1-methyl-1H-indazol-7-yl)-2-(1-(4,5,6,7-tetrahydroisoxazolo[4,3-c]pyridine-5-carbonyl)piperidin-4-ylidene)acetonitrile] |
| 7% | 8% | 98% | COC[C@@H]1CCCN1C(=O)N1CCC(=C(C#N)c2ccc(F)cc2)CC1 [Compound 8, (S)-2-(4-fluorophenyl)-2-(1-(2-(methoxymethyl)pyrrolidine-1-carbonyl)piperidin-4-ylidene)acetonitrile] |
| 6% | -2% | 92% | N#CC(=C1CCN(C(=O)N2CCSCC2)CC1)c1ccc(F)cc1 [Compound 100, 2-(4-fluorophenyl)-2-(1-(thiomorpholine-4-carbonyl)piperidin-4-ylidene)acetonitrile] |
| 5% | 30% | 96% | N#CC(=C1CCN(C(=O)N2C[C@@H]3CC[C@@H]2C3)CC1)c1ccc(F)cc1 [Compound 29, 2-(1-((1R,4R)-2-azabicyclo[2.2.1]heptane-2-carbonyl)piperidin-4-ylidene)-2-(4-fluorophenyl)acetonitrile] |
| 9% | 6% | 95% | N#CC(=C1CCN(C(=O)N2CCn3ncnc3C2)CC1)c1ccc(Cl)cn1 [Compound 165, 2-(5-chloropyridin-2-yl)-2-(1-(5,6,7,8-tetrahydro-[1,2,4]triazolo[1,5-a]pyrazine-7-carbonyl)piperidin-4-ylidene)acetonitrile] |
| 26% | 12% | 98% | N#CC(=C1CCN(C(=O)N2CCc3[nH]ncc3C2)CC1)c1cc(F)cc(F)c1 [Compound 116, 2-(3,5-difluorophenyl)-2-(1-(4,5,6,7-tetrahydro-1H-pyrazolo[4,3-c]pyridine-5-carbonyl)piperidin-4-ylidene)acetonitrile] |
| 9% | 7% | 88% | COC1CN(C(=O)N2CCC(=C(C#N)c3ccc(F)cc3)CC2)C1 [Compound 22, 2-(4-fluorophenyl)-2-(1-(3-methoxyazetidine-1-carbonyl)piperidin-4-ylidene)acetonitrile] |
| 9% | 27% | 72% | N#CC(=C1CCN(C(=O)N2CC(CO)C2)CC1)c1ccc(F)cc1 [Compound 85, 2-(4-fluorophenyl)-2-(1-(3-(hydroxymethyl)azetidine-1-carbonyl)piperidin-4-ylidene)acetonitrile] |
| 12% | 19% | 99% | N#CC(=C1CCN(C(=O)N2CCC(CO)CC2)CC1)c1ccc(F)cc1 [Compound 19, 2-(4-fluorophenyl)-2-(1-(4-(hydroxymethyl)piperidine-1-carbonyl)piperidin-4-ylidene)acetonitrile] |
| -6% | 5% | 96% | N#CC(=C1CCN(C(=O)N2CCC(O)CC2)CC1)c1ccc(C(F)(F)F)cc1 [Compound 127, 2-(1-(4-hydroxypiperidine-1-carbonyl)piperidin-4-ylidene)-2-(4-(trifluoromethyl)phenyl)acetonitrile] |
| 0% | -1% | 96% | N#CC(=C1CCN(C(=O)N2CCC(O)CC2)CC1)c1ccc(OC(F)(F)F)cc1 [Compound 115, 2-(1-(4-hydroxypiperidine-1-carbonyl)piperidin-4-ylidene)-2-(4-(trifluoromethoxy)phenyl)acetonitrile] |
| 10% | 4% | 89% | N#CC(=C1CCN(C(=O)N2CCCCC2)CC1)c1cc(F)cc(F)c1 [Compound 10, 2-(3,5-difluorophenyl)-2-(1-(piperidine-1-carbonyl)piperidin-4-ylidene)acetonitrile] |
| 8% | 31% | 98% | COC1CCN(C(=O)N2CCC(=C(C#N)c3cccc(Cl)c3)CC2)CC1 [Compound 17, 2-(3-chlorophenyl)-2-(1-(4-methoxypiperidine-1-carbonyl)piperidin-4-ylidene)acetonitrile] |
| 33% | 2% | 99% | N#CC(=C1CCN(C(=O)N2CCn3cncc3C2)CC1)c1ccc(F)cc1F [Compound 123, 2-(2,4-difluorophenyl)-2-(1-(5,6,7,8-tetrahydroimidazo[1,5-a]pyrazine-7-carbonyl)piperidin-4-ylidene)acetonitrile] |
| 15% | 15% | 99% | CCN(CC)C(=O)N1CCC(=C(C#N)c2ccc(F)cc2)CC1 [Compound 5, 4-(cyano(4-fluorophenyl)methylene)-N,N-diethylpiperidine-1-carboxamide] |
| 13% | 6% | 96% | N#CC(=C1CCN(C(=O)N2CCC(CO)CC2)CC1)c1ccc(F)cc1F [Compound 39, 2-(2,4-difluorophenyl)-2-(1-(4-(hydroxymethyl)piperidine-1-carbonyl)piperidin-4-ylidene)acetonitrile] |
